In ChEMBL document CHEMBL4390668, “Discovery and Structural Optimization of Acridones as Broad-Spectrum Antimalarials” (J Med Chem, 2019):

Assays:
Plasmodium falciparum [1] = test: Antimalarial activity against chloroquine-sensitive Plasmodium falciparum D6 infected in human erythrocytes by SYBR green 1-based fluorescence assay; assay type: functional, organism-based
Plasmodium falciparum [2] = test: Antimalarial activity against multidrug-resistant Plasmodium falciparum Dd2 infected in human erythrocytes by SYBR green 1-based fluorescence assay; assay type: functional, organism-based
Plasmodium falciparum [3] = test: Antimalarial activity against multidrug-resistant Plasmodium falciparum 7G8 infected in human erythrocytes by SYBR green 1-based fluorescence assay; assay type: functional, organism-based
Plasmodium falciparum [4] = test: Antimalarial activity against atovaquone-resistant Plasmodium falciparum Tm90-C2B infected in human erythrocytes by SYBR green 1-based fluorescence assay; assay type: functional, organism-based
HepG2 = test: Cytotoxicity against human HepG2 cells measured after 24 to 36 hrs by resazurin dye based fluorescence assay; assay type: cell-based
[5] = Selectivity index, ratio of IC50 for human HepG2 cells to IC50 for chloroquine-sensitive Plasmodium falciparum D6 infected in human erythrocytes; assay type: toxicity, cell-based; settings: read-out: Ratio IC50

SMILES	IC50 (Plasmodium falciparum [1]) [nM]	IC50 (Plasmodium falciparum [2]) [nM]	IC50 (Plasmodium falciparum [3]) [nM]	IC50 (Plasmodium falciparum [4]) [nM]	IC50 (HepG2) [nM]	selectivity ratio [5]
CCN(CC)CCNc1ccc2c(=O)c3cc(F)c(OC)cc3[nH]c2c1	526	1170	1300	1510	126000	239
CCCN(CCC)CCOc1ccc2c(=O)c3c(OC)cc(Cl)cc3[nH]c2c1	251	184	251	> 2500	45000	179
CCCN(CCC)CCOc1ccc2[nH]c3cc(F)cc(OC)c3c(=O)c2c1	35	105	175	> 250	55700	1590
CCN(CC)CCOc1ccc2[nH]c3ccc(Cl)cc3c(=O)c2c1	159	399	521	297	> 100000	> 629
CCCN(CCC)CCOc1ccc2c(=O)c3ccc(C(F)(F)F)cc3[nH]c2c1	26	0.44	5.6	1540	> 100000	> 3850
CCN(CC)CCOc1ccc2c(=O)c3cc(F)c(OC)cc3[nH]c2c1	156	448	533	622	> 200000	> 1280
CCCN(CCC)CCOc1ccc2[nH]c3cc(Cl)c(Cl)cc3c(=O)c2c1	26	17	14	58	> 100000	> 3850
CCCN(CCC)CCOc1ccc2[nH]c3cc(Cl)cc(OC)c3c(=O)c2c1	30	11	32	96	36800	1220
CCCN(CCC)CCOc1ccc2[nH]c3ccc(Cl)c(Cl)c3c(=O)c2c1	99	17	32	274	12700	128
CC(C)(C)NCCCOc1ccc2c(=O)c3c(Cl)c(Cl)ccc3[nH]c2c1	196	1360	1630	> 2500	24800	127
CCN(CC)CCOc1ccc2c(=O)c3ccc(C(F)(F)F)cc3[nH]c2c1	816	555	1540	1390	38600	47
CC(C)(C)NCCCOc1ccc2c(=O)c3c(F)cc(F)cc3[nH]c2c1	115	8.9	627	2500	41500	361
CC(C)(C)NCCCOc1ccc2c(=O)c3cc(Cl)ccc3[nH]c2c1	674	1020	> 2500	2140	75200	112
O=c1c2ccc(OCCCCl)cc2[nH]c2ccc(Cl)cc12	24	38	51	371	> 100000	> 4170
O=c1c2ccc(OCCCl)cc2[nH]c2cc(F)cc(F)c12	5	7	22	46	> 200000	> 40000
O=c1c2ccc(OCCCl)cc2[nH]c2cc(Cl)cc(Cl)c12	14	12	44	409	> 100000	> 7140
CCCCNCCCOc1ccc2c(=O)c3c(Cl)cc(Cl)cc3[nH]c2c1	101	186	294	82	11100	110

SMILES	IC50 (Plasmodium falciparum [1]) [nM]	IC50 (Plasmodium falciparum [2]) [nM]	IC50 (Plasmodium falciparum [3]) [nM]	IC50 (Plasmodium falciparum [4]) [nM]	IC50 (HepG2) [nM]	selectivity ratio [5]
CN(C)CCOc1ccc2c(=O)c3ccc(Cl)cc3[nH]c2c1	56	63	70	563	59000	1050
O=c1c2ccc(OCCCCl)cc2[nH]c2cc(F)cc(F)c12	1.4	0.3	1.9	89	> 100000	> 71400
CCN(CC)CCOc1ccc2c(=O)c3c(Cl)ccc(Cl)c3[nH]c2c1	506	1300	848	> 2500	77000	152
CCN(CC)CCCOc1ccc2c(=O)c3c(F)cc(F)cc3[nH]c2c1	32	7.8	44	705	38600	1210
CCN(CC)CCOc1ccc2c(=O)c3ccc(Cl)cc3n(CCN(CC)CC)c2c1	49	77	86	71	> 40000	> 816
CCN(CC)CCOc1ccc2c(=O)c3cc(F)c(OCCN(CC)CC)cc3[nH]c2c1	116	209	774	386	> 200000	> 12500
CCN(CC)CCOc1ccc2c(=O)c3cc(F)c(F)cc3[nH]c2c1	146	187	110	270	> 200000	> 1370
CCN(CC)CCOc1ccc2c(=O)c3ccc(Cl)c(Cl)c3[nH]c2c1	749	2440	> 2500	> 2500	46000	61
O=c1c2ccc(OCCCCl)cc2[nH]c2cc(Cl)c(Cl)cc12	179	161	2330	945	> 100000	> 558
CC(C)(C)NCCCOc1ccc2c(=O)c3cc(Cl)c(Cl)cc3[nH]c2c1	123	589	421	551	6100	49
CCN(CC)CCOc1ccc2c(=O)c3cc(Cl)cc(Cl)c3[nH]c2c1	928	> 2500	1290	> 2500	35000	38
CN(C)CCOc1ccc2c(=O)c3c(Cl)c(Cl)ccc3[nH]c2c1	393	2000	1250	> 2500	> 100000	> 254
CCCCNCCCOc1ccc2c(=O)c3cc(Cl)c(Cl)cc3[nH]c2c1	36	145	161	177	75200	2490
CCCN(CCC)CCOc1ccc2[nH]c3cc(OC)cc(Cl)c3c(=O)c2c1	79	92	288	558	> 100000	> 1270
CCCCNCCCOc1ccc2c(=O)c3c(Cl)c(Cl)ccc3[nH]c2c1	46	37	106	68	22700	492
CCN(CC)CCOc1ccc2c(=O)c3cc(Cl)c(Cl)cc3[nH]c2c1	44	132	73	507	> 100000	> 2270
